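Following 48 hours of exposure in 96-well plates, responses at five concentrations were used to interpolate endpoints linearly. The concentration for 50% growth inhibition is given as GI50. Definition used: TGI = concentration required for complete inhibition of growth.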 *1 amine or outer side, *2 acyl side, *3 side chain or, on linkers, in order; H or OH if unused. Where a SMILES comes first, the peptide text is derived from it. [ ]: non-standard residue; d: D form. The star is where a group is joined. X12 = NCCCCC(N[*:1])C(=O)CN1CCCC1C(=O)[*:2]; Pentadecanoyl = CCCCCCCCCCCCCCC(=O)*
Tests used:
Assay in all cases: NCI tumour cell line growth inhibition, 48 h
KM12 colon = tested on: KM12 colon
OVCAR-4 ovarian = tested on: OVCAR-4 ovarian
NCI-H460 lung = tested on: NCI-H460 lung
HS 578T breast = tested on: HS 578T breast
SK-OV-3 ovarian = tested on: SK-OV-3 ovarian
RPMI-8226 leukemia = tested on: RPMI-8226 leukemia
BT-549 breast = tested on: BT-549 breast

Structure (SMILES): C=C1CC2C[C@H](OS(=O)(=O)c3ccc(C)cc3)C(C1)N2C (some centres not stated)
- TGI (KM12 colon): > 100 µM
- TGI (OVCAR-4 ovarian): > 100 µM
- TGI (NCI-H460 lung): > 100 µM
- TGI (HS 578T breast): > 100 µM
- TGI (SK-OV-3 ovarian): > 100 µM
- TGI (RPMI-8226 leukemia): > 100 µM
- TGI (BT-549 breast): > 100 µM

Structure (SMILES): CC1=NNC(N)=N/C1=C\C(Sc1ccc(Cl)cc1)c1ccc(Cl)cc1Cl (configuration not stated)
- TGI (KM12 colon): 34.2 µM
- TGI (OVCAR-4 ovarian): 44.6 µM
- TGI (NCI-H460 lung): 29.3 µM
- TGI (HS 578T breast): 44.2 µM
- TGI (SK-OV-3 ovarian): 41.9 µM
- TGI (RPMI-8226 leukemia): 61.2 µM
- TGI (BT-549 breast): 55.7 µM

Structure (SMILES): CO/C=C(/C(=O)OC)c1ccccc1[C@H]1C[C@@H]1c1ccccc1
- TGI (KM12 colon): 49 µM
- TGI (OVCAR-4 ovarian): 62.3 µM
- TGI (NCI-H460 lung): 88.6 µM
- TGI (HS 578T breast): > 100 µM
- TGI (SK-OV-3 ovarian): 51.2 µM
- TGI (RPMI-8226 leukemia): 38.1 µM
- TGI (BT-549 breast): 52.2 µM

Structure (SMILES): CC(=O)OCC12C(OC(C)=O)C[C@@H](C)C3(CC(c4ccoc4)OC3=O)C1CCC(OC(C)=O)C21CO1 (some centres not stated)
- TGI (KM12 colon): > 100 µM
- TGI (OVCAR-4 ovarian): > 100 µM
- TGI (NCI-H460 lung): > 100 µM
- TGI (HS 578T breast): > 100 µM
- TGI (SK-OV-3 ovarian): > 100 µM
- TGI (RPMI-8226 leukemia): > 100 µM
- TGI (BT-549 breast): > 100 µM

Structure (SMILES): N#Cc1nc(-c2ccccn2)c(-c2ccccn2)nc1C#N
- TGI (KM12 colon): 11.6 µM
- TGI (OVCAR-4 ovarian): 12.3 µM
- TGI (NCI-H460 lung): > 35.1 µM
- TGI (HS 578T breast): 29.1 µM
- TGI (SK-OV-3 ovarian): 7.26 µM
- TGI (RPMI-8226 leukemia): > 100 µM
- TGI (BT-549 breast): 12.1 µM

Structure (SMILES): O=C1CSC(c2cc3cc(Br)ccc3nc2Cl)N1c1ccc(F)c(Cl)c1 (configuration not stated)
- TGI (KM12 colon): > 50 µM
- TGI (OVCAR-4 ovarian): > 50 µM
- TGI (NCI-H460 lung): > 50 µM
- TGI (HS 578T breast): > 50 µM
- TGI (SK-OV-3 ovarian): > 50 µM
- TGI (RPMI-8226 leukemia): > 50 µM
- TGI (BT-549 breast): > 50 µM

Structure (SMILES): Cc1cc(S(=O)(=O)Nc2n[nH]c(N)n2)c(S)cc1Cl
- TGI (KM12 colon): > 10 µM
- TGI (OVCAR-4 ovarian): > 10 µM
- TGI (NCI-H460 lung): > 10 µM
- TGI (HS 578T breast): > 10 µM
- TGI (SK-OV-3 ovarian): > 10 µM
- TGI (RPMI-8226 leukemia): > 10 µM
- TGI (BT-549 breast): > 10 µM

Structure (SMILES): CCOC(=O)C1=C(C)N(c2ccc(Cl)cc2)C2(O)C=CC(=O)C3C(=O)N(c4ccccc4)C(=O)C132 (configuration not stated)
- TGI (KM12 colon): 3.52 µM
- TGI (OVCAR-4 ovarian): 3.25 µM
- TGI (NCI-H460 lung): 4.97 µM
- TGI (HS 578T breast): 12.8 µM
- TGI (SK-OV-3 ovarian): 8.27 µM
- TGI (RPMI-8226 leukemia): 3.77 µM
- TGI (BT-549 breast): 5.8 µM

Structure (SMILES): Oc1[nH]c2ccccc2c1N=NC(=S)NCc1ccccn1
- TGI (KM12 colon): 19.6 µM
- TGI (OVCAR-4 ovarian): 21 µM
- TGI (NCI-H460 lung): 11.4 µM
- TGI (HS 578T breast): 47.7 µM
- TGI (SK-OV-3 ovarian): 13.8 µM
- TGI (RPMI-8226 leukemia): 53.9 µM
- TGI (BT-549 breast): 17.5 µM

Structure (SMILES): CCOC(=O)/C=C/C(Br)=C(Br)/C=C/C(=O)OCC
- TGI (KM12 colon): 32.6 µM
- TGI (OVCAR-4 ovarian): 34.8 µM
- TGI (NCI-H460 lung): > 100 µM
- TGI (HS 578T breast): > 76.2 µM
- TGI (SK-OV-3 ovarian): 47.8 µM
- TGI (RPMI-8226 leukemia): 15.6 µM
- TGI (BT-549 breast): 12.4 µM

Structure (SMILES): COc1cc(OC)cc(-c2nc3ccccc3c(=O)[nH]2)c1
- TGI (KM12 colon): > 100 µM
- TGI (OVCAR-4 ovarian): > 100 µM
- TGI (NCI-H460 lung): > 100 µM
- TGI (HS 578T breast): > 100 µM
- TGI (SK-OV-3 ovarian): 62.8 µM
- TGI (RPMI-8226 leukemia): > 100 µM
- TGI (BT-549 breast): > 100 µM

Structure (SMILES): NC(=O)c1nnc2c(F)cccc2c1N
- TGI (KM12 colon): > 100 µM
- TGI (OVCAR-4 ovarian): > 100 µM
- TGI (NCI-H460 lung): > 100 µM
- TGI (HS 578T breast): > 100 µM
- TGI (SK-OV-3 ovarian): > 100 µM
- TGI (RPMI-8226 leukemia): > 100 µM
- TGI (BT-549 breast): > 100 µM

Structure (SMILES): CCN(CC)CCC1(C(=O)OC)SCCc2ccc(C)cc21 (configuration not stated)
- TGI (KM12 colon): > 100 µM
- TGI (OVCAR-4 ovarian): > 100 µM
- TGI (NCI-H460 lung): > 100 µM
- TGI (HS 578T breast): > 100 µM
- TGI (SK-OV-3 ovarian): > 100 µM
- TGI (RPMI-8226 leukemia): > 100 µM
- TGI (BT-549 breast): > 100 µM

Structure (SMILES): CSC(=N/N=C(\C)c1ccc(S(=O)(=O)N(C)c2ccccc2)cc1)SC
- TGI (KM12 colon): > 100 µM
- TGI (OVCAR-4 ovarian): > 100 µM
- TGI (NCI-H460 lung): > 100 µM
- TGI (HS 578T breast): > 100 µM
- TGI (SK-OV-3 ovarian): > 100 µM
- TGI (RPMI-8226 leukemia): > 100 µM
- TGI (BT-549 breast): > 100 µM

Structure (SMILES): COc1nc2ncc([C@@H](O)[C@H](O)CO)nc2c(=O)[nH]1
- TGI (KM12 colon): > 100 µM
- TGI (OVCAR-4 ovarian): > 100 µM
- TGI (NCI-H460 lung): > 100 µM
- TGI (HS 578T breast): > 100 µM
- TGI (SK-OV-3 ovarian): > 100 µM
- TGI (RPMI-8226 leukemia): > 100 µM
- TGI (BT-549 breast): > 100 µM

Structure (SMILES): O=C1/C(=C/Cc2ccco2)N=C(c2ccccc2)N1c1nc2c(Cl)cc(Cl)cc2s1
- TGI (KM12 colon): > 100 µM
- TGI (OVCAR-4 ovarian): 75.6 µM
- TGI (NCI-H460 lung): > 100 µM
- TGI (HS 578T breast): 57.4 µM
- TGI (SK-OV-3 ovarian): > 100 µM
- TGI (RPMI-8226 leukemia): 35.4 µM
- TGI (BT-549 breast): 83.5 µM

Structure (SMILES): CN1CCN(C2CC(=O)c3c(Cl)sc(Cl)c32)CC1 (configuration not stated)
- TGI (KM12 colon): 30.9 µM
- TGI (OVCAR-4 ovarian): > 42.9 µM
- TGI (NCI-H460 lung): > 75.3 µM
- TGI (HS 578T breast): > 23.7 µM
- TGI (SK-OV-3 ovarian): > 90 µM
- TGI (RPMI-8226 leukemia): 15.5 µM
- TGI (BT-549 breast): > 52.2 µM

Structure (SMILES): CCCCCCCCCCCCCCC(=O)NC(CCCCN)C(=O)CN1CCCC1C(=O)NCC(=O)NC(Cc1ccccc1)C(=O)N1CCCC1C(=O)NC(CO)C(=O)NC(Cc1ccc(O)cc1)C(=O)NC(CCCCN)C(=O)NC(CC(C)C)C(=O)NC(CCCN=C(N)N)C(=O)N1CCCC1C(=O)NCC(N)=O (configuration not stated) (Pentadecanoyl-[X12]GFPSYKLRPG-NH2; configuration not given here)
- GI50 (KM12 colon): 7.61 µM
- TGI (KM12 colon): 38.7 µM
- GI50 (OVCAR-4 ovarian): 34.8 µM
- TGI (OVCAR-4 ovarian): 87.2 µM
- GI50 (NCI-H460 lung): 28.3 µM
- TGI (NCI-H460 lung): 83.7 µM
- GI50 (HS 578T breast): 38.6 µM
- TGI (HS 578T breast): > 100 µM
- GI50 (SK-OV-3 ovarian): 23.5 µM
- TGI (SK-OV-3 ovarian): 43.4 µM
- GI50 (RPMI-8226 leukemia): 14.7 µM
- TGI (RPMI-8226 leukemia): 30.8 µM
- GI50 (BT-549 breast): 29.6 µM
- TGI (BT-549 breast): 59.6 µM

Structure (SMILES): CC(C)(CO)Nc1c(O)c2c(c(O)c1Cl)C(=O)C=CC2=O
- TGI (KM12 colon): 2.78 µM
- TGI (OVCAR-4 ovarian): 2.92 µM
- TGI (NCI-H460 lung): 4.28 µM
- TGI (HS 578T breast): 3.41 µM
- TGI (SK-OV-3 ovarian): 2.91 µM
- TGI (RPMI-8226 leukemia): 4.82 µM
- TGI (BT-549 breast): 2.24 µM

Structure (SMILES): NC(=O)c1ccc(S(=O)(=NS(=O)(=O)c2ccccc2)c2ccc(C(N)=O)cc2)cc1
- TGI (KM12 colon): > 100 µM
- TGI (OVCAR-4 ovarian): > 100 µM
- TGI (NCI-H460 lung): > 100 µM
- TGI (HS 578T breast): > 100 µM
- TGI (SK-OV-3 ovarian): > 100 µM
- TGI (RPMI-8226 leukemia): > 100 µM
- TGI (BT-549 breast): > 100 µM

— PubChem BioAssay (NCI)
